# Measured values as given in patent US5968737A, “Method of identifying inhibitors of glutathione S-transferase (GST) gene expression” (The University of Mississippi, priority 1996, dated 1999).
# Like-named read-outs stand apart in the source and are kept apart here.
# What was measured:
# [1] = target: T1, human GST-π GSTP1a-1a, recombinant, encoded by hGSTP1*A (Ile104, Ala113; SEQ ID NO:3 and SEQ ID NO:4) (Homo sapiens, UniProt P09211); assay: Enzyme kinetics: catalysis of the conjugation of GSH with CDNB by purified recombinant GST-π protein; assay type: biochemical; details: 25° C., 0.1M K-phosphate buffer pH 8.3, 2.5 mM GSH
# T1 construct: made in house; host or cells: E. coli (XL1 Blue, pBK-CMV vector)
# T1 sequence (P09211 2-210 limits assumed): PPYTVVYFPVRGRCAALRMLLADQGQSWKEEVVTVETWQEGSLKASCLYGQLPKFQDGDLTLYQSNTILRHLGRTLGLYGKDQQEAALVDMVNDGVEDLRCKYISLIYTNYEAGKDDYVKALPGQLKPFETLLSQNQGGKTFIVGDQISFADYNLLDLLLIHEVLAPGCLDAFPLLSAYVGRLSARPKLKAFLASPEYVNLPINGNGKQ
# Method: (§1) FIGS. 8A-C. Lineweaver-Burke plots for the catalysis of the conjugation of GSH with CDNB by GSH-affinity chromatography purified recombinant GSTP1a-1a (FIG. 8A), GSTP1b-1b (FIG. 8B) and GSTP1c-1c (FIG. 8C). Reaction rates were determined with 2.5 mM GSH and 0.015 unit of each enzyme.
# (§2) Purification and enzyme kinetic analysis of variant GST-π proteins. Functional consequences of the structural differences in the GST-π variant proteins was determined by the differential ability of the recombinant GST-π proteins to catalyze the conjugation of GSH with 1-chloro-2,4-dinitrobenzene (CDNB), a universal GST substrate. After expression in E. coli, the three GST-π proteins were purified by GSH-affinity chromatography on S-hexyl glutathione linked to epoxy-activated sepharose 6B, as previously described (Simons and Van der Jagt, 1981) and then used for enzyme kinetic analysis. Reaction mixtures (25° C.) in 100 mM potassium phosphate buffer, pH 8.3 contained 0.5-2.5 mM CDNB, 2.5 mM GSH and 0.015 unit of purified GST-π protein. The change in absorbance was monitored at 340 nm over two minutes and used to compute reaction rates. The rates of the spontaneous reactions of GSH with CDNB, determined with reaction mixtures in which the GST-π enzyme was replaced with buffer, were subtracted from the rates of the enzyme catalyzed reactions. The resulting reaction rates were used to generate double reciprocal plots from which Vmax and Km values were determined, using standard methodology (Segel, 1976).
# [2] = target: T2, human GST-π variant GSTP1b-1b, recombinant, encoded by hGSTP1*B (Ile104→Val104; SEQ ID NO:5 and SEQ ID NO:6) (Homo sapiens, UniProt P09211, I105V); assay: as above; assay type: biochemical; details: 25° C., 0.1M K-phosphate buffer pH 8.3, 2.5 mM GSH
# T2 construct: made in house; host or cells: E. coli (XL1 Blue, pBK-CMV vector)
# T2 sequence (P09211 2-210 I105V): as the sequence (P09211 2-210 limits assumed) above, with I104V counted along it
# Method: as §1, §2
# [3] = target: T3, human GST-π variant GSTP1c-1c, recombinant, encoded by hGSTP1*C (Ile104→Val104, Ala113→Val113; SEQ ID NO:7 and SEQ ID NO:8) (Homo sapiens, UniProt P09211, A114V/I105V); assay: as above; assay type: biochemical; details: 25° C., 0.1M K-phosphate buffer pH 8.3, 2.5 mM GSH
# T3 construct: made in house; host or cells: E. coli (XL1 Blue, pBK-CMV vector)
# T3 sequence (P09211 2-210 I105V/A114V): as the sequence (P09211 2-210 limits assumed) above, with I104V, A113V counted along it
# Method: as §1, §2
# [4] = system: GST-π gene expression in MGR-3 cells; assay: Retinoic acid effect on GST-π gene expression in tumor cells (Northern and Western blotting); assay type: cell-based; details: Homo sapiens
# Method: Retinoic acid effect on GST-π gene expression in tumor cells. To further determine the functionality of the RAREs in GST-π gene of MGR-3 cell line, we examined changes in GST-π gene transcripts in MGR-3 cells after exposure to RA. For this study, MGR-3 cells in exponential growth were treated with 1 μM all-trans RA. Another set cultures without RA treatment served as controls. After 24 and 48 hrs incubation at 37° C., total RNA was extracted and GST-π gene transcript levels were determined by Northern blotting, as described earlier. Alterations in GST-π protein content was determined in cells similarly treated with 1 μM all-trans RA. Cultures were harvested after 0, 12, 24 and 48 hrs post-RA exposure, cell extracts prepared from them, as previously described, and subjected to Western blotting with anti-GST-π antibodies.
# [5] = system: RAR-β levels in MGR-3 cells; assay: Induction of RAR-β in nuclear extracts of RA-treated MGR-3 cells (immunoprecipitation); assay type: cell-based; details: Homo sapiens, 48-hr exposure, read-out: increase in RAR-β levels compared to untreated controls
# [6] = listed as 1-Chloro-2,4-dinitrobenzene
Structure (SMILES),Vmax (CDNB) [1] [µmol/min/mg],Km ([1]; 0.5-2.5 mM CDNB) [µM],"Vmax (CDNB) [1, 6] [µmol/min/mg]",Vmax (CDNB) [2] [µmol/min/mg],Km ([2]; 0.5-2.5 mM CDNB) [µM],"Vmax (CDNB) [2, 6] [µmol/min/mg]",Vmax (CDNB) [3] [µmol/min/mg],Km ([3]; 0.5-2.5 mM CDNB) [µM],"Vmax (CDNB) [3, 6] [µmol/min/mg]","fold induction at 1 µM ([4]; 1.0 μM, 48 hr, Northern analysis, read-out: increase in the level of GST-π gene transcripts relative to control levels (maximum))","fold induction at 1 µM ([4]; 1 μM, 48 hrs, Western blot, read-out: increase in GST-π protein content relative to untreated controls)",fold induction at 1 µM [5]
"O=[N+]([O-])c1ccc(Cl)c([N+](=O)[O-])c1 [CDNB, 1-chloro-2,4-dinitrobenzene]",4.7 ± 0.03,980,4.7 ± 0.03,1.7 ± 0.087,2700 ± 23,1.6 ± 0.087,1.4 ± 0.23,3100 ± 170,1.4 ± 0.23,,,
CC1=C(/C=C/C(C)=C/C=C/C(C)=C/C(=O)O)C(C)(C)CCC1 [all-trans retinoic acid],,,,,,,,,,3.4,2.8,> 3
